≈ marks a conversion by molar mass, not a printed value. Read-outs that look alike come from different tables or passages of the source.
Key:
[1] = system: Pasteurella multocida CVCC399; experiment: MIC by mini broth dilution technique (in vitro susceptibility); format: cell-based
Description: (§1) in vitro tests of susceptibility of the compounds according to the present disclosure against bacterial strains commonly used in laboratories. In accordance with the Performance Standards for Antimicrobial Disk Susceptibility Tests: Approved Standard published by the US National Committee for Clinical Laboratory Standards, the antibactetial activities of compounds prepared according to examples 5 to 187 were tested. The MICs (minimum inhibitory concentration) of the medicaments prepared according to the examples on the following bacterial strains were measured through mini broth dilution technique. Staphylococcus aureus CVCC26003, Streptococcus equines CVCC556. Actinobacillus pleuropneumoniae CVCC262, Haemophilus parasuis, and Pasteurella multocida CVCC399, which were purchased from the Control Institute of Veterinary Bioproducts and Pharmaceuticals, China. Liquid culture medium: […] Solid culture medium: […] The strains were taken out of a regrigerator at −20° C. to be revived, and were spreaded by streaking on the solid culture medium with an inoculating loop. The inoculated culture medium was cultured at 35° C. in a constant temperature incubator for 20 h. Monoclonal antibodies were selected from a well-grown culture plate and streaked on the solid culture medium. The inoculated culture medium was cultured at 35° C. in the constant temperature incubator for 20 h. […] A 96-well plate was used, and 100 μl of DMSO was added into each of wells 2 to 11, and 200 μl of ready-prepared medicament solution was added into the 1st well, 100 μl of the medicament solution was extracted from the 1st well and added into the 2nd well. Double dilution was performed until the 11th well, thereby forming 11 gradients. In this case, compound of parent plate was prepared. 3 μl of double diluted medicament solution was extracted with a 12-channel pipettor and added into wells 1-11 of a new disposable 96-well culture plate. The 12th well thereof is a controll well. For each medicament, there are two adjacent rows which are parallel. The transferred compound plate was reserved for later use. […] The dilution ratio was recorded, and the bacterial liquid for the tests was diluted according to the recorded dilution ratio. Subsequently, the bacterial suspension and the liquid culture medium were diluted in the proportion of 1:200. The diluted solution was reserved for later use.

[2] = system: Streptococcus equines CVCC556; experiment: as above; format: cell-based
Description: as §1

[3] = system: Actinobacillus pleuropneumoniae CVCC262; experiment: as above; format: cell-based
Description: as §1

[4] = system: Haemophilus parasuis; experiment: as above; format: cell-based; details: Glaesserella parasuis, read-out: MIC values Haemophilus parasuis
Description: as §1

[5] = system: Staphylococcus aureus CVCC26003; experiment: as above; format: cell-based
Description: in vitro tests of susceptibility of the compounds according to the present disclosure against bacterial strains commonly used in laboratories. In accordance with the Performance Standards for Antimicrobial Disk Susceptibility Tests: Approved Standard published by the US National Committee for Clinical Laboratory Standards, the antibactetial activities of compounds prepared according to examples 5 to 187 were tested. The MICs (minimum inhibitory concentration) of the medicaments prepared according to the examples on the following bacterial strains were measured through mini broth dilution technique. Staphylococcus aureus CVCC26003, Streptococcus equines CVCC556. Actinobacillus pleuropneumoniae CVCC262, Haemophilus parasuis, and Pasteurella multocida CVCC399, which were purchased from the Control Institute of Veterinary Bioproducts and Pharmaceuticals, China. Liquid culture medium: CAMHB. […] Solid culture medium: NINA prepared according to the specification of the final product. The strains were taken out of a regrigerator at −20° C. to be revived, and were spreaded by streaking on the solid culture medium with an inoculating loop. The inoculated culture medium was cultured at 35° C. in a constant temperature incubator for 20 h. Monoclonal antibodies were selected from a well-grown culture plate and streaked on the solid culture medium. The inoculated culture medium was cultured at 35° C. in the constant temperature incubator for 20 h. […] A 96-well plate was used, and 100 μl of DMSO was added into each of wells 2 to 11, and 200 μl of ready-prepared medicament solution was added into the 1st well, 100 μl of the medicament solution was extracted from the 1st well and added into the 2nd well. Double dilution was performed until the 11th well, thereby forming 11 gradients. In this case, compound of parent plate was prepared. 3 μl of double diluted medicament solution was extracted with a 12-channel pipettor and added into wells 1-11 of a new disposable 96-well culture plate. The 12th well thereof is a controll well. For each medicament, there are two adjacent rows which are parallel. The transferred compound plate was reserved for later use. […] The dilution ratio was recorded, and the bacterial liquid for the tests was diluted according to the recorded dilution ratio. Subsequently, the bacterial suspension and the liquid culture medium were diluted in the proportion of 1:200. The diluted solution was reserved for later use.

[6] = system: Streptococcus pneumoniae CMCC 31203; experiment: In vivo antibacterial test, survival of infected BALB/c mice; details: CMCC31203, sc, 168 h, read-out: Animal survival rate
[7] = Pasteurella multocida CVCC399, broth dilution, read-out: MIC values Pasteurella multocida CVCC399
[8] = Streptococcus equines CVCC556, broth dilution, read-out: MIC values Streptococcus equines CVCC556
[9] = Actinobacillus pleuropneumoniae CVCC262, broth dilution, read-out: MIC values Actinobacillus pleuropneumoniae CVCC262
[10] = Haemophilus parasuis, broth dilution
[11] = Staphylococcus aureus CVCC26003, broth dilution, read-out: MIC values Staphylococcus aureus CVCC26003
[12] = BALB/c mice infected i.p. with Streptococcus pneumoniae, 5 mg per kg s.c. via neck for 3 consecutive days, deaths recorded until the seventh day

`CC[C@@H]1OC(=O)[C@H](C)[C@H](OC2C[C@@](C)(OC)[C@](O)(CNCC(C)C)[C@H](C)O2)[C@@H](C)[C@@H](O[C@@H]2O[C@H](C)C[C@H](N(C)C)[C@H]2O)[C@](C)(O)C[C@@H](C)NC[C@@H](C)[C@H](O)[C@]1(C)O` (stereo partly drawn) [syzx-12, (2R,3S,4R,5S,8R,10R,11R,12S,13S,14R)-13-[(2,6-dideoxy-3-C-methyl-3-O-methyl-4-C-[(isobutylamino)methyl]-α-L-ribopyranosyl)oxy]-2-ethyl-3,4,10-trihydroxy-3,5,8,10,12,14-hexamethyl-11-[[3,4,6-trideoxy-3-(dimethylamino)-β-D-xylo-hexopyranosy]oxy]-1-oxa-7-azacyclopentadecan-15-one] gave an MIC [1, 7] of at most 0.25 µg/mL, an MIC [2, 8] of at most 0.25 µg/mL and an MIC [3, 9] of at most 0.25 µg/mL. For the same compound, the MIC [4, 10] was at most 0.25 µg/mL, the MIC [5, 11] was at most 0.25 µg/mL and the responders at 5 mg/kg [6, 12] was 70%.
With `CC[C@@H]1OC(=O)[C@H](C)[C@H](OC2C[C@@](C)(OC)[C@](O)(CNC(C)(C)C)[C@H](C)O2)[C@@H](C)[C@@H](O[C@@H]2O[C@H](C)C[C@H](N(C)C)[C@H]2O)[C@](C)(O)C[C@@H](C)NC[C@@H](C)[C@H](O)[C@]1(C)O` (stereo partly drawn) [syzx-14] the MIC [1, 7] was 0.25 µg/mL (≈ 0.305 µM), the MIC [2, 8] was at most 0.25 µg/mL and the MIC [3, 9] was 0.5 µg/mL (≈ 0.61 µM). The MIC [4, 10] was at most 0.25 µg/mL, the MIC [5, 11] was at most 0.25 µg/mL and the responders at 5 mg/kg [6, 12] was 70%.
`CC[C@@H]1OC(=O)[C@H](C)[C@H](OC2C[C@@](C)(OC)[C@](O)(CN3CCCCC3)[C@H](C)O2)[C@@H](C)[C@@H](O[C@@H]2O[C@H](C)C[C@H](N(C)C)[C@H]2O)[C@](C)(O)C[C@@H](C)NC[C@@H](C)[C@H](O)[C@]1(C)O` (stereo partly drawn) [syzx-15, (2R,3S,4R,5S,8R,10R,11R,12S,13S,14R)-13-[(2,6-dideoxy-3-C-methyl-3-O-methyl-4-C-[piperidinylmethyl]-α-L-ribopyranosyl)oxy]-2-ethyl-3,4,10-trihydroxy-3,5,8,10,12,14-hexamethyl-11-[[3,4,6-trideoxy-3-(dimethylamino)-β-D-xylo-hexopyranosy]oxy]-1-oxa-7-azacyclopentadecan-15-one] gave an MIC [1, 7] of at most 0.25 µg/mL, an MIC [2, 8] of at most 0.25 µg/mL and an MIC [3, 9] of 0.5 µg/mL (≈ 0.601 µM). It also gave an MIC [4, 10] of at most 0.25 µg/mL, an MIC [5, 11] of at most 0.25 µg/mL and a responders at 5 mg/kg [6, 12] of 70%.
Compound `CC[C@@H]1OC(=O)[C@H](C)[C@H](OC2C[C@@](C)(OC)[C@](O)(CNCC3CC3)[C@H](C)O2)[C@@H](C)[C@@H](O[C@@H]2O[C@H](C)C[C@H](N(C)C)[C@H]2O)[C@](C)(O)C[C@@H](C)NC[C@@H](C)[C@H](O)[C@]1(C)O` (stereo partly drawn) [syzx-17, (2R,3S,4R,5S,8R,10R,11R,12S,13S,14R)-13-[(2,6-dideoxy-3-C-methyl-3-O-methyl-4-C-[(cyclopropylmethylamino)methyl]-α-L-ribopyranosyl)oxy]-2-ethyl-3,4,10-trihydroxy-3,5,8,10,12,14-hexamethyl-11-[[3,4,6-trideoxy-3-(dimethylamino)-β-D-xylo-hexopyranosy]oxy]-1-oxa-7-azacyclopentadecan-15-one] has an MIC [1, 7] of 0.25 µg/mL (≈ 0.306 µM), an MIC [2, 8] of at most 0.25 µg/mL and an MIC [3, 9] of 2 µg/mL (≈ 2.44 µM). For the same compound, the MIC [4, 10] was at most 0.25 µg/mL, the MIC [5, 11] was at most 0.25 µg/mL and the responders at 5 mg/kg [6, 12] was 70%.
`CC[C@@H]1OC(=O)[C@H](C)[C@H](OC2C[C@@](C)(OC)[C@](O)(CNC3CCCC3)[C@H](C)O2)[C@@H](C)[C@@H](O[C@@H]2O[C@H](C)C[C@H](N(C)C)[C@H]2O)[C@](C)(O)C[C@@H](C)NC[C@@H](C)[C@H](O)[C@]1(C)O` (stereo partly drawn) [syzx-30, (2R,3S,4R,5S,8R,10R,11R,12S,13S,14R)-13-[(2,6-dideoxy-3-C-methyl-3-O-methyl-4-C-[(cyclopentylamino)-methyl]-α-L-ribopyranosyl)oxy]-2-ethyl-3,4,10-trihydroxy-3,5,8,10,12,14-hexamethyl-11-[[3,4,6-trideoxy-3-(dimethylamino)-β-D-xylo-hexopyranosy]oxy]-1-oxa-7-azacyclopentadecan-15-one] showed an MIC [1, 7] of at most 0.25 µg/mL, an MIC [2, 8] of at most 0.25 µg/mL and an MIC [3, 9] of 0.5 µg/mL (≈ 0.601 µM). The MIC [4, 10] was 0.5 µg/mL (≈ 0.601 µM), the MIC [5, 11] was at most 0.25 µg/mL and the responders at 5 mg/kg [6, 12] was 80%.
Compound `CC[C@@H]1OC(=O)[C@H](C)[C@H](OC2C[C@@](C)(OC)[C@](O)(CNCc3cccc(OC)c3)[C@H](C)O2)[C@@H](C)[C@@H](O[C@@H]2O[C@H](C)C[C@H](N(C)C)[C@H]2O)[C@](C)(O)C[C@@H](C)NC[C@@H](C)[C@H](O)[C@]1(C)O` (stereo partly drawn) [syzx-35, (2R,3S,4R,5S,8R,10R,11R,12S,13S,14R)-13-[(2,6-dideoxy-3-C-methyl-3-O-methyl-4-C-[[3-methoxybenzyl-amino]-methyl]-α-L-ribopyranosyl)oxy]-2-ethyl-3,4,10-trihydroxy-3,5,8,10,12,14-hexamethyl-11-[[3,4,6-trideoxy-3-(dimethylamino)-β-D-xylo-hexopyranosy]oxy]-1-oxa-7-azacyclopentadecan-15-one] has an MIC ([1]; Pasteurella multocida, CVCC399, read-out: MIC values Pasteurella multocida CVCC399) of 1 µg/mL (≈ 1.13 µM), an MIC ([2]; Streptococcus, CVCC556, read-out: MIC values Streptococcus equines CVCC556) of 0.5 µg/mL (≈ 0.566 µM) and an MIC ([3]; Actinobacillus pleuropneumoniae, CVCC262, read-out: MIC values Actinobacillus pleuropneumoniae CVCC262) of 0.25 µg/mL (≈ 0.283 µM). It also gave an MIC [4] of 0.25 µg/mL (≈ 0.283 µM), an MIC ([5]; Staphylococcus aureus, CVCC26003, read-out: MIC values Staphylococcus aureus CVCC26003) of 0.25 µg/mL (≈ 0.283 µM) and a responders at 5 mg/kg ([6]; Streptococcus pneumoniae) of 70%.
`CCCCCNC[C@]1(O)[C@H](C)OC(O[C@@H]2[C@@H](C)[C@@H](O[C@@H]3O[C@H](C)C[C@H](N(C)C)[C@H]3O)[C@](C)(O)C[C@@H](C)NC[C@@H](C)[C@H](O)[C@](C)(O)[C@H](CC)OC(=O)[C@@H]2C)C[C@@]1(C)OC` (stereo partly drawn) [syzx-47, (2R,3S,4R,5S,8R,10R,11R,12S,13S,14R)-13-[(2,6-dideoxy-3-C-methyl-3-O-methyl-4-C-[[n-pentyl-amino]-methyl]-α-L-ribopyranosyl)oxy]-2-ethyl-3,4,10-trihydroxy-3,5,8,10,12,14-hexamethyl-11-[[3,4,6-trideoxy-3-(dimethylamino)-β-D-xylo-hexopyranosy]oxy]-1-oxa-7-azacyclopentadecan-15-one] showed an MIC [1, 7] of at most 0.25 µg/mL, an MIC [2, 8] of at most 0.25 µg/mL and an MIC [3, 9] of 0.5 µg/mL (≈ 0.599 µM). For the same compound, the MIC [4, 10] was 0.5 µg/mL (≈ 0.599 µM), the MIC [5, 11] was 1 µg/mL (≈ 1.2 µM) and the responders at 5 mg/kg [6, 12] was 90%.
`CC[C@@H]1OC(=O)[C@H](C)[C@H](OC2C[C@@](C)(OC)[C@](O)(CNCc3cnc(C)cn3)[C@H](C)O2)[C@@H](C)[C@@H](O[C@@H]2O[C@H](C)C[C@H](N(C)C)[C@H]2O)[C@](C)(O)C[C@@H](C)NC[C@@H](C)[C@H](O)[C@]1(C)O` (stereo partly drawn) [syzx-65] was tested, and the MIC [1, 7] was 1 µg/mL (≈ 1.15 µM), the MIC [2, 8] was at most 0.25 µg/mL and the MIC [3, 9] was 32 µg/mL (≈ 36.8 µM). For the same compound, the MIC [4, 10] was at most 0.25 µg/mL, the MIC [5, 11] was at most 0.25 µg/mL and the responders at 5 mg/kg [6, 12] was 90%.

Reference: patent publication US20160304547A1, “MACROLIDE COMPOUND” (PULIKE BIOLOGICAL ENGINEERING, INC, priority 2013, published 2016)
